Results published in US6872690B2, “Herbicidal 2-alkynyl-pyri (mi) dines” (WYETH, priority 2001, dated 2005).

Legend:
Assay type in all cases: in vivo
Zea mays [1] = assay: Post-emergence herbicidal activity test; settings: 2-4 weeks after treatment
Procedure: (§1) To evaluate their herbicidal activity, compounds according to the invention are tested using a representative range of plants:
(§2) These acetone solutions are diluted with water and the resulting formulations applied at dosage levels equivalent of about 0.025 to 0. 4 kg per hectare of test compound per pot. After spraying the plants are placed on greenhouse benches and are cared for in the usual manner, commensurate with conventional greenhouse practices. From 2 to 4 weeks after treatment, the seedling plants are examined and rated according to the rating system provided above.

Ipomoea hederacea [2] = assay: Post-emergence herbicidal activity test; settings: 2-4 weeks after treatment
Procedure: as §1, §2

Orysa sativa [3] = assay: Post-emergence herbicidal activity test; settings: 2-4 weeks after treatment
Procedure: as §1, §2

Triticum aestivum [4] = assay: Post-emergence herbicidal activity test; settings: 2-4 weeks after treatment
Procedure: as §1, §2

Matricaria inodora [5] = assay: Post-emergence herbicidal activity test; settings: 2-4 weeks after treatment
Procedure: as §1, §2

Digitaria sanguinalis [6] = assay: Post-emergence herbicidal activity test; settings: 2-4 weeks after treatment
Procedure: as §1, §2

Echinochloa crus-galli [7] = assay: Post-emergence herbicidal activity test; settings: 2-4 weeks after treatment
Procedure: as §1, §2

Abutilon theophrasti [8] = assay: Post-emergence herbicidal activity test; settings: 2-4 weeks after treatment
Procedure: as §1, §2

Glycine max [9] = assay: Post-emergence herbicidal activity test; settings: 2-4 weeks after treatment
Procedure: as §1, §2

Alopecurus myosuroides [10] = assay: Post-emergence herbicidal activity test; settings: 2-4 weeks after treatment
Procedure: as §1, §2

Galium aparine [11] = assay: Post-emergence herbicidal activity test; settings: 2-4 weeks after treatment
Procedure: as §1, §2

Cassia obtusifolia [12] = assay: Post-emergence herbicidal activity test; settings: 2-4 weeks after treatment
Procedure: as §1, §2

Setaria viridis [13] = assay: Post-emergence herbicidal activity test; settings: 2-4 weeks after treatment
Procedure: as §1, §2

Stellaria media [14] = assay: Post-emergence herbicidal activity test; settings: 2-4 weeks after treatment
Procedure: as §1, §2

Zea mays [15] = assay: Pre-emergence test; settings: 3 weeks after treatment
Procedure: as §1
(§3) The pre-emergence tests involve spraying a liquid formulation of the compound onto the soil in which the seeds of the plant species mentioned above has recently been sown.
(§4) The soil used in the tests is a prepared horticultural loam. The formulations used in the tests are prepared from solutions of the test compounds in acetone containing 0.4% by weight of an alkyl-phenol/ethylene oxide condensate available under the trade mark TRITON X-155. These acetone solutions are diluted with water and the resulting formulations applied at dosage levels corresponding to 0.013 kg, 0.025 kg, 0.100 kg or 0.400 kg of active material per hectare in a volume equivalent to 900 litres per hectare. In these tests untreated sown soil are used as controls. From 2 to 4 weeks after treatment, the tests are terminated and each pot is examined and rated according to the rating system set forth below: […]

Ipomoea hederacea [16] = assay: Pre-emergence test; settings: 3 weeks after treatment
Procedure: as §1, §3, §4

Orysa sativa [17] = assay: Pre-emergence test; settings: 3 weeks after treatment
Procedure: as §1, §3, §4

Triticum aestivum [18] = assay: Pre-emergence test; settings: 3 weeks after treatment
Procedure: as §1, §3, §4

Lamium purpureum = assay: Pre-emergence test; settings: 3 weeks after treatment
Procedure: as §1, §3, §4

Matricaria inodora [19] = assay: Pre-emergence test; settings: 3 weeks after treatment
Procedure: as §1, §3, §4

Digitaria sanguinalis [20] = assay: Pre-emergence test; settings: 3 weeks after treatment
Procedure: as §1, §3, §4

Echinochloa crus-galli [21] = assay: Pre-emergence test; settings: 3 weeks after treatment
Procedure: as §1, §3, §4

Abutilon theophrasti [22] = assay: Pre-emergence test; settings: 3 weeks after treatment
Procedure: as §1, §3, §4

Glycine max [23] = assay: Pre-emergence test; settings: 3 weeks after treatment
Procedure: as §1, §3, §4

Alopecurus myosuroides [24] = assay: Pre-emergence test; settings: 3 weeks after treatment
Procedure: as §1, §3, §4

Galium aparine [25] = assay: Pre-emergence test; settings: 3 weeks after treatment
Procedure: as §1, §3, §4

Cassia obtusifolia [26] = assay: Pre-emergence test; settings: 3 weeks after treatment
Procedure: as §1, §3, §4

Setaria viridis [27] = assay: Pre-emergence test; settings: 3 weeks after treatment
Procedure: as §1, §3, §4

Stellaria media [28] = assay: Pre-emergence test; settings: 3 weeks after treatment
Procedure: as §1, §3, §4

Cc1cc(C#Cc2ccccc2)nc(Oc2cc(C(F)(F)F)nn2C)c1 [Example 1, 4-methyl-6-phenylethynyl-2-(1-methyl-3-trifluoromethylpyrazol-5-yloxy)pyridine]
Post-emergence application ZEAMX (Zea mays [1]; 0.025 kg/ha): 2 (2-Slight effect)
Post-emergence application ZEAMX (Zea mays [1]; 0.100 kg/ha): 4 (4-Injury)
Post-emergence application ZEAMX (Zea mays [1]; 0.400 kg/ha): 5 (5-Definite injury)
Post-emergence application IPOHE (Ipomoea hederacea [2]; 0.025 kg/ha): 6 (6-Herbicidal effect)
Post-emergence application IPOHE (Ipomoea hederacea [2]; 0.400 kg/ha): 8 (8-Approaching complete kill)
Post-emergence application ORYSA (Orysa sativa [3]; 0.025 kg/ha): 2 (2-Slight effect)
Post-emergence application ORYSA (Orysa sativa [3]; 0.100 kg/ha): 3 (3-Moderate effect)
Post-emergence application ORYSA (Orysa sativa [3]; 0.400 kg/ha): 4 (4-Injury)
Post-emergence application TRZWA (Triticum aestivum [4]; 0.025 kg/ha): 2 (2-Slight effect)
Post-emergence application TRZWA (Triticum aestivum [4]; 0.100 kg/ha): 3 (3-Moderate effect)
Post-emergence application TRZWA (Triticum aestivum [4]; 0.400 kg/ha): 3 (3-Moderate effect)
Post-emergence application MATIN (Matricaria inodora [5]; 0.025 kg/ha): 4 (4-Injury)
Post-emergence application MATIN (Matricaria inodora [5]; 0.100 kg/ha): 5 (5-Definite injury)
Post-emergence application MATIN (Matricaria inodora [5]; 0.400 kg/ha): 6 (6-Herbicidal effect)
Post-emergence application DIGSA (Digitaria sanguinalis [6]; 0.025 kg/ha): 3 (3-Moderate effect)
Post-emergence application DIGSA (Digitaria sanguinalis [6]; 0.100 kg/ha): 7 (7-Good herbicidal effect)
Post-emergence application DIGSA (Digitaria sanguinalis [6]; 0.400 kg/ha): 7 (7-Good herbicidal effect)
Post-emergence application ECHCG (Echinochloa crus-galli [7]; 0.025 kg/ha): 4 (4-Injury)
Post-emergence application ECHCG (Echinochloa crus-galli [7]; 0.100 kg/ha): 7 (7-Good herbicidal effect)
Post-emergence application ECHCG (Echinochloa crus-galli [7]; 0.400 kg/ha): 8 (8-Approaching complete kill)
Post-emergence application ABUTH (Abutilon theophrasti [8]; 0.025 kg/ha): 4 (4-Injury)
Post-emergence application ABUTH (Abutilon theophrasti [8]; 0.100 kg/ha): 5 (5-Definite injury)
Post-emergence application ABUTH (Abutilon theophrasti [8]; 0.400 kg/ha): 6 (6-Herbicidal effect)
Post-emergence application GLXMA (Glycine max [9]; 0.025 kg/ha): 5 (5-Definite injury)
Post-emergence application GLXMA (Glycine max [9]; 0.100 kg/ha): 6 (6-Herbicidal effect)
Post-emergence application GLXMA (Glycine max [9]; 0.400 kg/ha): 6 (6-Herbicidal effect)
Post-emergence application ALOMY (Alopecurus myosuroides [10]; 0.025 kg/ha): 4 (4-Injury)
Post-emergence application ALOMY (Alopecurus myosuroides [10]; 0.100 kg/ha): 7 (7-Good herbicidal effect)
Post-emergence application ALOMY (Alopecurus myosuroides [10]; 0.400 kg/ha): 8 (8-Approaching complete kill)
Post-emergence application GALAP (Galium aparine [11]; 0.025 kg/ha): 6 (6-Herbicidal effect)
Post-emergence application GALAP (Galium aparine [11]; 0.100 kg/ha): 6 (6-Herbicidal effect)
Post-emergence application GALAP (Galium aparine [11]; 0.400 kg/ha): 6 (6-Herbicidal effect)
Post-emergence application CASOB (Cassia obtusifolia [12]; 0.025 kg/ha): 6 (6-Herbicidal effect)
Post-emergence application CASOB (Cassia obtusifolia [12]; 0.100 kg/ha): 7 (7-Good herbicidal effect)
Post-emergence application CASOB (Cassia obtusifolia [12]; 0.400 kg/ha): 7 (7-Good herbicidal effect)
Post-emergence application SETVI (Setaria viridis [13]; 0.025 kg/ha): 7 (7-Good herbicidal effect)
Post-emergence application SETVI (Setaria viridis [13]; 0.100 kg/ha): 8 (8-Approaching complete kill)
Post-emergence application SETVI (Setaria viridis [13]; 0.400 kg/ha): 8 (8-Approaching complete kill)
Post-emergence application STEME (Stellaria media [14]; 0.025 kg/ha): 5 (5-Definite injury)
Post-emergence application STEME (Stellaria media [14]; 0.100 kg/ha): 6 (6-Herbicidal effect)
Post-emergence application STEME (Stellaria media [14]; 0.400 kg/ha): 7 (7-Good herbicidal effect)
Assessment (pre-emergence application) ZEAMX (Zea mays [15]; 0.013 kg/ha): 1 (1-Trace effect)
Assessment (pre-emergence application) ZEAMX (Zea mays [15]; 0.025 kg/ha): 2 (2-Slight effect)
Assessment (pre-emergence application) ZEAMX (Zea mays [15]; 0.100 kg/ha): 2 (2-Slight effect)
Assessment (pre-emergence application) ZEAMX (Zea mays [15]; 0.400 kg/ha): 4 (4-Injury)
Assessment (pre-emergence application) IPOHE (Ipomoea hederacea [16]; 0.013 kg/ha): 3 (3-Moderate effect)
Assessment (pre-emergence application) IPOHE (Ipomoea hederacea [16]; 0.100 kg/ha): 4 (4-Injury)
Assessment (pre-emergence application) IPOHE (Ipomoea hederacea [16]; 0.400 kg/ha): 9 (9-Complete kill)
Assessment (pre-emergence application) ORYSA (Orysa sativa [17]; 0.013 kg/ha): 1 (1-Trace effect)
Assessment (pre-emergence application) ORYSA (Orysa sativa [17]; 0.025 kg/ha): 2 (2-Slight effect)
Assessment (pre-emergence application) ORYSA (Orysa sativa [17]; 0.100 kg/ha): 3 (3-Moderate effect)
Assessment (pre-emergence application) ORYSA (Orysa sativa [17]; 0.400 kg/ha): 5 (5-Definite injury)
Assessment (pre-emergence application) TRZWA (Triticum aestivum [18]; 0.013 kg/ha): 0 (0-No effect)
Assessment (pre-emergence application) TRZWA (Triticum aestivum [18]; 0.025 kg/ha): 0 (0-No effect)
Assessment (pre-emergence application) TRZWA (Triticum aestivum [18]; 0.100 kg/ha): 2 (2-Slight effect)
Assessment (pre-emergence application) TRZWA (Triticum aestivum [18]; 0.400 kg/ha): 3 (3-Moderate effect)
Assessment (pre-emergence application) LAMPU (Lamium purpureum; 0.013 kg/ha): 7 (7-Good herbicidal effect)
Assessment (pre-emergence application) LAMPU (Lamium purpureum; 0.100 kg/ha): 8 (8-Approaching complete kill)
Assessment (pre-emergence application) LAMPU (Lamium purpureum; 0.400 kg/ha): 8 (8-Approaching complete kill)
Assessment (pre-emergence application) MATIN (Matricaria inodora [19]; 0.013 kg/ha): 5 (5-Definite injury)
Assessment (pre-emergence application) MATIN (Matricaria inodora [19]; 0.025 kg/ha): 7 (7-Good herbicidal effect)
Assessment (pre-emergence application) MATIN (Matricaria inodora [19]; 0.100 kg/ha): 8 (8-Approaching complete kill)
Assessment (pre-emergence application) MATIN (Matricaria inodora [19]; 0.400 kg/ha): 8 (8-Approaching complete kill)
Assessment (pre-emergence application) DIGSA (Digitaria sanguinalis [20]; 0.013 kg/ha): 5 (5-Definite injury)
Assessment (pre-emergence application) DIGSA (Digitaria sanguinalis [20]; 0.025 kg/ha): 5 (5-Definite injury)
Assessment (pre-emergence application) DIGSA (Digitaria sanguinalis [20]; 0.100 kg/ha): 9 (9-Complete kill)
Assessment (pre-emergence application) DIGSA (Digitaria sanguinalis [20]; 0.400 kg/ha): 9 (9-Complete kill)
Assessment (pre-emergence application) ECHCG (Echinochloa crus-galli [21]; 0.013 kg/ha): 1 (1-Trace effect)
Assessment (pre-emergence application) ECHCG (Echinochloa crus-galli [21]; 0.025 kg/ha): 4 (4-Injury)
Assessment (pre-emergence application) ECHCG (Echinochloa crus-galli [21]; 0.100 kg/ha): 5 (5-Definite injury)
Assessment (pre-emergence application) ECHCG (Echinochloa crus-galli [21]; 0.400 kg/ha): 8 (8-Approaching complete kill)
Assessment (pre-emergence application) ABUTH (Abutilon theophrasti [22]; 0.013 kg/ha): 4 (4-Injury)
Assessment (pre-emergence application) ABUTH (Abutilon theophrasti [22]; 0.100 kg/ha): 5 (5-Definite injury)
Assessment (pre-emergence application) ABUTH (Abutilon theophrasti [22]; 0.400 kg/ha): 9 (9-Complete kill)
Assessment (pre-emergence application) GLXMA (Glycine max [23]; 0.100 kg/ha): 3 (3-Moderate effect)
Assessment (pre-emergence application) GLXMA (Glycine max [23]; 0.400 kg/ha): 4 (4-Injury)
Assessment (pre-emergence application) ALOMY (Alopecurus myosuroides [24]; 0.013 kg/ha): 1 (1-Trace effect)
Assessment (pre-emergence application) ALOMY (Alopecurus myosuroides [24]; 0.025 kg/ha): 2 (2-Slight effect)
Assessment (pre-emergence application) ALOMY (Alopecurus myosuroides [24]; 0.100 kg/ha): 4 (4-Injury)
Assessment (pre-emergence application) ALOMY (Alopecurus myosuroides [24]; 0.400 kg/ha): 8 (8-Approaching complete kill)
Assessment (pre-emergence application) GALAP (Galium aparine [25]; 0.013 kg/ha): 1 (1-Trace effect)
Assessment (pre-emergence application) GALAP (Galium aparine [25]; 0.025 kg/ha): 2 (2-Slight effect)
Assessment (pre-emergence application) GALAP (Galium aparine [25]; 0.100 kg/ha): 3 (3-Moderate effect)
Assessment (pre-emergence application) GALAP (Galium aparine [25]; 0.400 kg/ha): 7 (7-Good herbicidal effect)
Assessment (pre-emergence application) CASOB (Cassia obtusifolia [26]; 0.013 kg/ha): 1 (1-Trace effect)
Assessment (pre-emergence application) CASOB (Cassia obtusifolia [26]; 0.400 kg/ha): 8 (8-Approaching complete kill)
Assessment (pre-emergence application) SETVI (Setaria viridis [27]; 0.013 kg/ha): 4 (4-Injury)
Assessment (pre-emergence application) SETVI (Setaria viridis [27]; 0.025 kg/ha): 7 (7-Good herbicidal effect)
Assessment (pre-emergence application) SETVI (Setaria viridis [27]; 0.100 kg/ha): 8 (8-Approaching complete kill)
Assessment (pre-emergence application) SETVI (Setaria viridis [27]; 0.400 kg/ha): 9 (9-Complete kill)
Assessment (pre-emergence application) STEME (Stellaria media [28]; 0.013 kg/ha): 5 (5-Definite injury)
Assessment (pre-emergence application) STEME (Stellaria media [28]; 0.025 kg/ha): 8 (8-Approaching complete kill)
Assessment (pre-emergence application) STEME (Stellaria media [28]; 0.100 kg/ha): 9 (9-Complete kill)
Assessment (pre-emergence application) STEME (Stellaria media [28]; 0.400 kg/ha): 9 (9-Complete kill)
